This passage reports chromatographic logP, pest or weed control and inhibition results from patent US20230192617A1, “AZABICYCLIC(THIO)AMIDES AS FUNGICIDAL COMPOUNDS” (Bayer CropScience Aktiengesellschaft, priority 2020, published 2023).

Data set [1] in a line: Measurement of Log P values by HPLC on reversed phase columns (EEC directive 79/831 Annex V.A8). The data set is classed as physicochemical. Particulars: reversed phase HPLC column, method [a]: LC-UV, acidic range, 0.1% formic acid in water and acetonitrile as eluent. The procedure, abridged:
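Log P derived from retention on reversed-phase columns (EEC directive 79/831 Annex V.A8), LC-UV, acetonitrile gradient 10% to 95% against water containing 0.1% formic acid, 0.001 M ammonium acetate, or 0.1% phosphoric acid; several values per method separated by "+".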

Data set [2] concerns Alternaria brassicae. Briefly: In vivo preventive test on Alternaria brassicae (leaf spot on radish or cabbage). The conditions noted are these: 500 ppm of active ingredient, preventive spray on radish or cabbage, evaluated 3 to 4 days after inoculation, read-out: efficacy. In short, it runs like this: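 Protective spray on young radish or cabbage: actives in water diluted from DMSO/acetone/Tween 80, with solvent-only controls. Leaves were challenged after 24 h with a spore suspension, and plants were held at 100% RH, 20 °C for 3 to 4 days.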

Data set [3] has as its system Pyrenophora teres. Kind of data set: In vivo preventive test on Pyrenophora teres (net blotch on barley). The conditions noted are these: 240 h, 500 ppm of active ingredient, preventive spray on barley, evaluated 10 days after inoculation, read-out: efficacy. The procedure, abridged:
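Net blotch spores were sprayed onto barley leaves one day after foliar treatment with water-diluted DMSO/acetone/Tween 80 formulations (solvent-only controls). Plants were kept at 20° C: first 48 hours at 100% relative humidity, then 8 days at 70-80%.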

For data set [4], the system named is Colletotrichum lindemuthianum. Briefly: In vivo preventive test on Colletotrichum lindemuthianum (leaf spot on bean). The conditions noted are these: 168 h, 500 ppm of active ingredient, preventive spray on bean, evaluated 7 days after inoculation, read-out: efficacy. In short, it runs like this: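 Young bean plants sprayed with compound in DMSO/acetone/Tween 80 diluted in water; solvent-only controls. Inoculated 24 h later with C. lindemuthianum spore suspension, then kept 24 h at 20 °C/100% RH and 6 days at 20 °C/90% RH.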

The test system of data set [5] is Alternaria alternata. Kind of data set: Alternaria alternata in vitro cell test. The data set is classed as cell-based. The conditions noted are these: 120 h, 20 ppm of active ingredient, liquid culture, 5 days incubation, spectrometric measurement of mycelium growth, read-out: efficacy (inhibition of fungal growth). The procedure, abridged:
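Spectrometric readout of mycelial growth after 5-day incubation gauged compound effects on spore germination and growth of A. alternata in liquid medium. Compounds were delivered in DMSO at ≤1% final. Absorbance was compared with untreated controls to give inhibition.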

For data set [6], the system named is Septoria tritici. Kind of data set: B-9. Septoria tritici in vitro cell test. The data set is classed as cell-based. Particulars: Zymoseptoria tritici, 168 h; 20 ppm of active ingredient; 7 days incubation; liquid culture, absorbance; read-out: efficacy (inhibition of fungal growth). As to the method: B-9. Septoria tritici In Vitro Cell Test [table] Fungicides were solubilized in DMSO and the solution used to prepare the required range of concentrations. The final concentration of DMSO used in the assay was ≤1%. A spore suspension of S. tritici was prepared and diluted to the desired spore density. Fungicides were evaluated for their ability to inhibit spore germination and mycelium growth in liquid culture assay. The compounds were added in the desired concentration to the culture medium with spores. After 7 days incubation, fungi-toxicity of compounds was determined by spectrometric measurement of mycelium growth. Inhibition of fungal growth was determined by comparing the absorbance values in wells containing the fungicides with the absorbance in control wells without fungicides.

For data set [7], the system named is Pyrenophora teres. Kind of data set: B-10. Pyrenophora teres in vitro cell test. Particulars: 144 h, 20 ppm of active ingredient, 6 days incubation, liquid culture, absorbance, read-out: efficacy (inhibition of fungal growth). The data set is classed as cell-based. In short, it runs like this:
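Liquid-culture assay on a P. teres spore suspension with compounds added to the medium from DMSO solutions, final DMSO ≤1%. Mycelium growth read spectrometrically after 6 days. Inhibition calculated from absorbance against untreated control wells.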

The subject of data set [8] is Botrytis cinerea. Briefly: B-11. Botrytis cinerea in vitro cell test. The data set is classed as cell-based. The conditions noted are these: 144 h, 20 ppm of active ingredient, 6 days incubation, liquid culture, absorbance, read-out: efficacy (inhibition of fungal growth). The procedure, abridged: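 B. cinerea spores were grown in liquid culture with compound (DMSO ≤1% final). Mycelium growth was measured spectrometrically after 6 days, with inhibition taken as absorbance relative to untreated control wells.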

Data set [9] concerns Botrytis cinerea. Briefly: In vivo preventive test on Botrytis cinerea (grey mould). Particulars: 500 ppm of active ingredient, preventive spray on gherkin or cabbage, evaluated 4 to 5 days after inoculation, read-out: efficacy. In short, it runs like this: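 Preventive spray on cabbage or gherkin seedlings, with compound formulated in DMSO/acetone/Tween 80 and water-diluted, preceded spore inoculation by 24 hours. Cabbage was held 4 to 5 days at 20° C., 100% relative humidity; gherkin 4 to 5 days at 17° C., 90% relative humidity.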

Data set [10] relates to Sphaerotheca fuliginea. Briefly: In vivo preventive test on Sphaerotheca fuliginea (powdery mildew on cucurbits). The conditions noted are these: Podosphaera fuliginea, 192 h; 500 ppm of active ingredient; preventive spray on gherkin; evaluated 8 days after inoculation; read-out: efficacy. In short, it runs like this:
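This is a preventive spray test on gherkin seedlings, with compound formulated in DMSO/acetone/Tween 80 in water and solvent-only controls. Spore inoculation followed one day after treatment. Incubation lasted 8 days at 20 °C, 70–80% RH.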

Data set [11] has as its system Colletotrichum lindemuthianum. Kind of data set: B-8. Colletotrichum lindemuthianum in vitro cell test. In kind it is cell-based. The conditions noted are these: 144 h, 20 ppm of active ingredient, 6 days incubation, liquid culture, absorbance, read-out: efficacy (inhibition of fungal growth). In short, it runs like this: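 Liquid-culture germination/growth test: compounds in ≤1% final DMSO were added to spore-containing medium. Fungal growth was quantified spectrophotometrically after 6 days of incubation and expressed as inhibition versus untreated controls.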

For `COc1cc([C@@H](F)CNC(=O)c2c(Oc3cccc(C(F)(F)F)c3)nnc3ccccc23)ccc1Cl` (racemic) [I-176], the chromatographic logP in data set [1] was 3.92. For the same compound, the pest or weed control at 500 ppm in [2] fell in the range of 90 to 100%; in [3] it was 80 to 89%; in data set [4], 70 to 79%. Besides, the inhibition at 20 ppm in [5] is 90 to 100%; in data set [6], 80 to 89%; in data set [7], 90 to 100%; in [8] it was 90 to 100%.
Turning to `Cc1ccc(C(F)(F)CNC(=O)c2c(Oc3cccc(C(F)(F)F)c3)nnc3c2CCCC3)c(C)c1` [I-115], in data set [1], the chromatographic logP came out at 4.05. Also, the pest or weed control at 500 ppm in [2], in [9], in data set [3], in [10] and in data set [4] was 90 to 100% in each case. Further, the inhibition at 20 ppm in data set [5], in data set [11], in [6] and in [7] was 90 to 100% each time.
`Cc1cc(Cl)ccc1C(F)(F)CNC(=O)c1c(Oc2cccc(C3CC3)c2F)nnc2c1CCCC2` [I-147]: the chromatographic logP in data set [1] is 4.34. The pest or weed control at 500 ppm in data set [2], in data set [9], in data set [3], in [10] and in data set [4] was 90 to 100% throughout. The inhibition at 20 ppm in data set [5], in data set [11], in [6] and in data set [7] was 90 to 100% throughout.
Consider `O=C(NCC(F)(F)c1ccc(Cl)cc1Cl)c1c(Oc2cccc(C(F)(F)F)c2)nnc2c1CCCC2` [I-189], for which, in data set [1], the chromatographic logP came to 4.23. In addition, the pest or weed control at 500 ppm was 90 to 100% in [9], 80 to 89% in data set [3], 90 to 100% in data set [10] and 90 to 100% in [4]. Also, the inhibition at 20 ppm in [5], in data set [11], in data set [6], in data set [7] and in data set [8] was 90 to 100% in each case.
Compound `O=C(NCC(F)(F)c1ccc(Cl)cc1Cl)c1c(Oc2cccc(C(F)F)c2)nnc2c1CCCC2` [I-191] came in with a chromatographic logP in [1] of 3.73. Besides, the pest or weed control at 500 ppm in data set [9], in [3], in [10] and in data set [4] was 90 to 100% each time. Further, the inhibition at 20 ppm in data set [5], in data set [11], in data set [6], in data set [7] and in data set [8] was 90 to 100% throughout.
As to `O=C(NCC(F)(F)c1ccc(Cl)cc1Cl)c1c(Oc2cccc(Cl)c2)nnc2c1CCCC2` [I-192], the chromatographic logP in data set [1] was 4. For the same compound, the pest or weed control at 500 ppm in [9], in data set [3], in [10] and in [4] was 90 to 100% in each case. In addition, the inhibition at 20 ppm in [5], in data set [11], in data set [6], in [7] and in data set [8] was 90 to 100% each time.
Regarding `O=C(NCC(F)(F)c1ccc(Cl)cc1Cl)c1c(Oc2cccc(Cl)c2F)nnc2c1CCCC2` [I-194], the chromatographic logP in [1] was 4.05. Further, the pest or weed control at 500 ppm in data set [9], in data set [3], in data set [10] and in data set [4] was 90 to 100% in each case. Moreover, the inhibition at 20 ppm in data set [5], in data set [11], in data set [6], in [7] and in data set [8] was 90 to 100% in each case.
In the case of `O=C(NCC(F)(F)c1ccc(Cl)cc1Cl)c1c(Oc2cccc(C3CC3)c2F)nnc2c1CCCC2` [I-196], in data set [1], the chromatographic logP worked out at 4.28. The pest or weed control at 500 ppm in data set [9], in data set [3], in data set [10] and in data set [4] was 90 to 100% throughout. Also, the inhibition at 20 ppm in data set [5], in data set [11], in data set [6], in data set [7] and in [8] was 90 to 100% in each case.
In [1], `O=C(NCC(F)(F)c1ccc(Cl)cc1Cl)c1c(Oc2cccc(C(F)(F)F)c2)nnc2c1CCC2` [I-198] yielded a chromatographic logP of 4.05. Further, the pest or weed control at 500 ppm in data set [9] lay within 90 to 100%; in data set [3], 80 to 89%; in data set [10] it was 90 to 100%; in data set [4] it was 90 to 100%. Further, the inhibition at 20 ppm in [5], in data set [11], in data set [6], in [7] and in data set [8] was 90 to 100% throughout.
Regarding `O=C(NCC(F)(F)c1ccc(Cl)cc1Cl)c1c(Oc2cccc(Cl)c2F)nnc2c1CCC2` [I-201], the chromatographic logP in [1] is 3.94. The pest or weed control at 500 ppm in data set [9], in [3], in data set [10] and in data set [4] was 90 to 100% each time. Further, the inhibition at 20 ppm in [5], in data set [11], in [6], in [7] and in data set [8] was 90 to 100% each time.
In [1], `Cc1ccc(C(F)(F)CNC(=O)c2c(Oc3cccc(C(F)(F)F)c3)nnc3cc(C4CC4)ccc23)cc1C` [I-235] showed a chromatographic logP of 5. Also, the pest or weed control at 500 ppm in data set [2] was 90 to 100%; in [9], 90 to 100%; in data set [3], 80 to 89%; in data set [10], 90 to 100%. The inhibition at 20 ppm in data set [5], in data set [11], in data set [6], in data set [7] and in data set [8] was 90 to 100% in each case.
With `Cc1ccc(C(F)(F)CNC(=O)c2c(Oc3cccc(C(F)(F)F)c3)nnc3cc(C4CC4)ccc23)c(C)c1` [I-242], the chromatographic logP in data set [1] was found to be 5.12. The pest or weed control at 500 ppm in [2] was in the range of 90 to 100%; in [9] it was 90 to 100%; in [3] it was 70 to 79%; in [10], 80 to 89%. Further, the inhibition at 20 ppm in data set [5] fell in the range of 90 to 100%; in data set [11], 90 to 100%; in data set [6], 80 to 89%; in [7], 90 to 100%; in data set [8], 90 to 100%.

One may read the chromatographic logP as a lipophilicity value derived from retention on a column. The low end stands for lower lipophilicity, the high end for higher lipophilicity. Usually inhibition stands for the percentage by which the read-out fell short of the control.
